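Interpolation was linear, between the two tested concentrations surrounding the appropriate level; five concentrations were tested over 48 hours in 96-well plates. At the GI50, growth is halved.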 The source made the active and inactive calls. Rule as the data show it: active = GI50 up to about 1.1 µM and inactive = higher.
Experiments:
Assay in all cases: NCI-60 cell line screen, 48 h
MDA-MB-435 = tested on: MDA-MB-435
TK-10 = tested on: TK-10
HOP-92 = tested on: HOP-92
Malme-3M = tested on: Malme-3M
SK-MEL-28 = tested on: SK-MEL-28
M14 = tested on: M14
NCI/ADR-RES = tested on: NCI/ADR-RES
SK-MEL-2 = tested on: SK-MEL-2
OVCAR-3 = tested on: OVCAR-3
EKVX = tested on: EKVX
SN12C = tested on: SN12C
IGROV-1 = tested on: IGROV-1
LOX IMVI = tested on: LOX IMVI
786-0 = tested on: 786-0
OVCAR-4 = tested on: OVCAR-4
HCC 2998 = tested on: HCC 2998
T47D = tested on: T47D
SK-MEL-5 = tested on: SK-MEL-5
OVCAR-5 = tested on: OVCAR-5
SR = tested on: SR

Compound | GI50 (MDA-MB-435) | GI50 (TK-10) | GI50 (HOP-92) | GI50 (Malme-3M) | GI50 (SK-MEL-28) | GI50 (M14) | GI50 (NCI/ADR-RES) | GI50 (SK-MEL-2) | GI50 (OVCAR-3) | GI50 (EKVX) | GI50 (SN12C) | GI50 (IGROV-1) | GI50 (LOX IMVI) | GI50 (786-0) | GI50 (OVCAR-4) | GI50 (HCC 2998) | GI50 (T47D) | GI50 (SK-MEL-5) | GI50 (OVCAR-5) | GI50 (SR)
C=C=C(CC(CC(=C)Br)(C(=O)OC)C(=O)OC)S(=O)(=O)c1ccccc1 | 1.74 µM (inactive) | 1.96 µM (inactive) | 1.95 µM (inactive) | 1.91 µM (inactive) | 1.76 µM (inactive) | 1.96 µM (inactive) | 2.26 µM (inactive) | 2.5 µM (inactive) | 2.27 µM (inactive) | 2.82 µM (inactive) | 1.53 µM (inactive) | 1.66 µM (inactive) | 0.419 µM (active) | 1.05 µM (active) | 8.89 µM (inactive) | 2.58 µM (inactive) | 3.77 µM (inactive) | 3.11 µM (inactive) | 1.65 µM (inactive) | 
O=C(CSCC(=O)N/N=C\c1ccccc1F)N/N=C\c1ccccc1F | 68.5 µM (inactive) | > 100 µM (inactive) | > 100 µM (inactive) | > 100 µM (inactive) | > 100 µM (inactive) | > 100 µM (inactive) | 14 µM (inactive) | > 100 µM (inactive) | 27 µM (inactive) | > 100 µM (inactive) | > 100 µM (inactive) | > 100 µM (inactive) | > 100 µM (inactive) | > 100 µM (inactive) | > 100 µM (inactive) | 38.5 µM (inactive) | 77.6 µM (inactive) | 64.1 µM (inactive) |  | 
COC(=O)[C@@]12CCCC(=O)[C@@H]1[C@H]1CCCC[C@H]12 | > 100 µM (inactive) | > 100 µM (inactive) | 32.1 µM (inactive) | > 100 µM (inactive) | > 100 µM (inactive) | > 100 µM (inactive) | > 100 µM (inactive) | > 100 µM (inactive) | > 100 µM (inactive) | > 100 µM (inactive) | > 100 µM (inactive) | > 100 µM (inactive) | > 100 µM (inactive) | > 100 µM (inactive) | > 100 µM (inactive) | > 100 µM (inactive) |  | > 100 µM (inactive) | > 100 µM (inactive) | > 100 µM (inactive)
C=CCN1C(=O)N/C(=C\c2ccc(Cl)cc2)C1=O | > 100 µM (inactive) | > 100 µM (inactive) | > 100 µM (inactive) | > 100 µM (inactive) | > 100 µM (inactive) | > 100 µM (inactive) | > 100 µM (inactive) |  | > 100 µM (inactive) | 93.8 µM (inactive) | > 100 µM (inactive) | > 100 µM (inactive) | > 100 µM (inactive) | > 100 µM (inactive) | > 100 µM (inactive) |  | > 100 µM (inactive) | > 100 µM (inactive) | > 100 µM (inactive) | 
COC1CC2CCC(C)[C@](O)(O2)C(=O)C(=O)N2CCCCC2C(=O)OC(C(C)CC2CCC(O)C(OC)C2)CC(=O)C(C)C=C(C)C(OC(=O)CN(C)C)C(OC)C(=O)C(C)CC(C)/C=C/C=C/C=C\1C (stereo not given in full) | 2.69 µM (inactive) | 11.6 µM (inactive) | < 0.01 µM (active) | < 0.01 µM (active) | 0.973 µM (active) | 7.43 µM (inactive) |  | < 0.0419 µM (active) | 9.79 µM (inactive) | < 0.01 µM (active) |  |  | < 0.01 µM (active) | 10.8 µM (inactive) | < 0.01 µM (active) |  | < 0.01 µM (active) | 3.78 µM (inactive) | 12.6 µM (inactive) | < 0.01 µM (active)
CCCCC(Sc1cc(Cl)c(C)cc1S(=O)(=O)Nc1nc(N)n[nH]1)C(=O)OC (stereo not given) | > 10 µM (inactive) | > 10 µM (inactive) |  | > 10 µM (inactive) | > 10 µM (inactive) | > 10 µM (inactive) | > 10 µM (inactive) | > 10 µM (inactive) | > 10 µM (inactive) | > 10 µM (inactive) | > 10 µM (inactive) | > 10 µM (inactive) | > 10 µM (inactive) | > 10 µM (inactive) | > 10 µM (inactive) | > 10 µM (inactive) | > 10 µM (inactive) | > 10 µM (inactive) | > 10 µM (inactive) | 
Cc1ccc(C(=O)Nc2ccc(CP(=O)(O)O)cc2)cc1NC(=O)Nc1cc(C(=O)Nc2ccc(CP(=O)(O)O)cc2)ccc1C | > 100 µM (inactive) | > 100 µM (inactive) |  | > 100 µM (inactive) | > 100 µM (inactive) | > 100 µM (inactive) | > 100 µM (inactive) | > 100 µM (inactive) | > 100 µM (inactive) | > 100 µM (inactive) | > 100 µM (inactive) | > 100 µM (inactive) | > 100 µM (inactive) | > 100 µM (inactive) | > 100 µM (inactive) | > 100 µM (inactive) | > 100 µM (inactive) | > 100 µM (inactive) | > 100 µM (inactive) | 

Reference: ChEMBL document CHEMBL1201862, “PubChem BioAssay data set” (2004)
